target: T1, CDK4/cyclin D1 kinase complex (Homo sapiens, UniProt P11802); assay: CDK4/cyclinD1 Flashplate assay in 96-well format; type: biochemical; settings: read-out: IC 50 CDK4
T1 construct: HA (Hemagglutinin tag) (C); made in house; host or cells: Sf9 insect cells (baculovirus co-infection)
Procedure: Purification of the CDK4-HA/cyclin D1-(His)6 complex by IMAC (Immobilized Metal Affinity Chromatography):
Two recombinant baculoviruses carrying the human sequences coding respectively for CDK4-HA (C-terminal fusion with the Hemagglutinin tag) and for cyclin D1-(His)6 are used to co-infect Sf9 insect cells. Sixty hours after the beginning of co-infection, the cells are harvested by centrifugation and then frozen at −20° C. until their use. After thawing in buffer A (HEPES 200 mM pH 7.0, NaCl 50 mM, MgCl2 2 mM, imidazole 25 mM, TCEP 1 mM, glycerol 10% (w/v), NaF 1 mM, Na3VO4 1 mM), stirring at 4° C. for 1 h, and centrifugation, the complex present in the lysis supernatant is purified by affinity chromatography on nickel (IMAC) and stored at −80° C.
CDK4/cyclinD1 Flashplate Assay in 96-Well Format.
An assay in 96-well “Flashplate” (scintillation plate) plates coated with streptavidin is used to evaluate the inhibition of the CDK4/cyclin D1 kinase complex by the products of the invention. To perform this test, the biotinylated peptide substrate, a fragment of the pRb protein, (biotinyl-[…]-amide), is dissolved at a concentration of 2 mM in kinase buffer (HEPES/NaOH 50 mM, NaCl 1 mM, MgCl2 5 mM, pH=7.5) to form a stock solution, which is stored at −20° C. in the form of 110 μl aliquots. On the day of the experiment, an aliquot of this solution is thawed and diluted in kinase buffer containing 1 mM of dithiothreitol, added at the time of use, so as to give a final peptide concentration of 2.571 μM. seventy μl of this solution are deposited in each well of the Flashplate plate, to give a final substrate concentration of 1.8 μM during the enzymatic reaction, which is performed in a final volume of 100 μl (cf. below). Intermediate dilutions of inhibitors (products of the invention) at various concentrations are prepared in DMSO from 10 mM stock solutions in separate tubes. In this way dilutions at 1000 μM, 333.3 μM, 111.1 μM, 37.03 μM, 12.35 μM, 4.11 μM and 1.37 μM are produced. One μl of each of these solutions (or 1 μl of DMSO for the controls) is subsequently transferred into the wells of the assay plate. To each well there is subsequently added 19 μl of a solution of a mixture of adenosine triphosphate (ATP) and ATPγ^33P in the kinase buffer at a concentration of 5.26 μM of total ATP and 78.9 μCi/ml of ^33P. The enzymatic reaction is triggered by adding 10 μl per well of a solution of CDK4/cyclin D1 complex at 250 nM in the kinase buffer, containing 1 mM of dithiothreitol (or 10 μl of kinase buffer containing 1 mM of dithiothreitol for the reaction blanks). At the end of the various additions, the final volume in each well is 100 μl, the final substrate concentration is 1.8 μM, the final inhibitor concentrations are 10 μM, 3.33 μM, 1.11 μM, 0.37 μM, 0.123 μM, 0.041 μM and 0.014 μM (depending on the concentration of the intermediate dilution), the final ATP concentration is 1 μM, the final amount of ^33P is 1.5 μCi/well, and the final concentration of CDK4/cyclin D1 complex is 25 nM.
After all of the reagents have been added, the assay plate is incubated at 30° C. with orbital stirring at 650 rpm. Following incubation, the plate is washed three times with 300 μl per well of PBS buffer (phosphate buffered saline, pH=7.4 with neither calcium nor magnesium, reference 10010-015, Gibco BRL). The incorporation of ^33P into the substrate peptide is measured by scintillation counting using a Packard Topcount.NXT instrument. The inhibitory activity of the products of the invention is evaluated by determining the concentration of inhibitor resulting in a 50% reduction in the enzymatic activity (IC50).

T1 sequence (P11802 whole entry): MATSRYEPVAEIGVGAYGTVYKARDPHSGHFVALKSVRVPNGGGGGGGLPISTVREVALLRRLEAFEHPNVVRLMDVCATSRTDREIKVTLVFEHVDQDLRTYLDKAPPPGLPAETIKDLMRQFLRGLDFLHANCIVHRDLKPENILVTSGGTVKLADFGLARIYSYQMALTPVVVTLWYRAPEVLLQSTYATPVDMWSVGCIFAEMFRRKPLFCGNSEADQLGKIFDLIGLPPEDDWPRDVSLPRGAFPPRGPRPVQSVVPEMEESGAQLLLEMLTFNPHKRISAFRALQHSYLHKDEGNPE
T1 sequence (P24385 whole entry partner): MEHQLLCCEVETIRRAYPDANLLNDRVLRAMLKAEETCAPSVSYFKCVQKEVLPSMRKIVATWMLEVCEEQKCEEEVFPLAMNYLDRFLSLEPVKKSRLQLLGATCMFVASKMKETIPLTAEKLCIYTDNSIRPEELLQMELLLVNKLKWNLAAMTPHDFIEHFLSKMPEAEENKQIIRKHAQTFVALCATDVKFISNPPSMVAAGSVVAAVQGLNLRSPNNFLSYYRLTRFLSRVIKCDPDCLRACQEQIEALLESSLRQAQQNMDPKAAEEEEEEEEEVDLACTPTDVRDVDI

SMILES	IC50 [µM]
O=C(Nc1n[nH]c2c(F)c(-c3ccc(NS(=O)(=O)c4cccs4)cc3)ccc12)c1ccsc1 [Example 31, Thiophene-3-carboxylic acid{7-fluoro-6-[4-(thiophene-2-sulfonylamino)-phenyl]-1H-indazol-3-yl}-amide]	0.73
CC(=O)Nc1ccc(S(=O)(=O)Nc2ccc(-c3ccc4c(NC(=O)c5ccsc5)n[nH]c4c3F)cc2)cc1 [Example 33, Thiophene-3-carboxylic acid{6-[4-(4-acetyl-aminobenzene-sulfonylamino)-phenyl]-7-fluoro-1H-indazol-3-yl}-amide]	1.21
CS(=O)(=O)Nc1ccc(-c2ccc3c(NC(=O)c4ccsc4)n[nH]c3c2F)cc1 [Example 34, Thiophene-3-carboxylic acid[7-fluoro-6-(4-methanesulfonyl-aminophenyl)-1H-indazol-3-yl]-amide]	2.09
O=C(Nc1n[nH]c2c(F)c(-c3ccc(NS(=O)(=O)C4CC4)cc3)ccc12)c1ccsc1 [Example 36, Thiophene-3-carboxylic acid{6-[4-cyclo-propanesulfonyl-aminophenyl)-7-fluoro-1H-indazol-3-yl}-amide]	3.6
Cn1cnc(S(=O)(=O)Nc2ccc(-c3ccc4c(NC(=O)c5ccsc5)n[nH]c4c3F)cc2)c1 [Example 39, Thiophene-3-carboxylic acid{7-fluoro-6[4-(1-methyl-1H-imidazole-4-sulfonylamino)-phenyl]-1H-indazol-3-yl}-amide]	3.65

Next, values leading:

IC50 [µM]	SMILES
0.49	O=C(Nc1n[nH]c2c(F)c(-c3ccc(NS(=O)(=O)c4cccc5ccccc45)cc3)ccc12)c1ccsc1 [Example 30, Thiophene-3-carboxylic acid{7-fluoro-6-[4-(naphthalene-1-sulfonylamino)-phenyl]-1H-indazol-3-yl}-amide]
0.747	O=C(Nc1n[nH]c2c(F)c(-c3ccc(NS(=O)(=O)c4ccccc4)cc3)ccc12)c1ccsc1 [Example 32, Thiophene-3-carboxylic acid[6-(4-benzene-sulfonylamino-phenyl)-7-fluoro-1H-indazol-3-yl]-amide]
0.051	O=C(Nc1n[nH]c2c(F)c(-c3ccc(NS(=O)(=O)c4ccccc4Cl)cc3)ccc12)c1ccsc1 [Example 37, Thiophene-3-carboxylic acid{6-[4-(2-chloro-benzenesulfonyl-amino)phenyl]-7-fluoro-1H-indazol-3-yl}-amide]
0.419	O=C(Nc1n[nH]c2c(F)c(-c3ccc(NS(=O)(=O)c4cccc(Cl)c4)cc3)ccc12)c1ccsc1 [Example 38, Thiophene-3-carboxylic acid{6-[4-(3-chloro-benzenesulfonyl-amino)phenyl]-7-fluoro-1H-indazol-3-yl}-amide]
